This note sets out measurements from PubChem BioAssay AID1963856 (Molecular Pharmacology Branch, DTP, NCI, 2024).

The test deals with LG0567-F671-PDC KRAS tumor spheroid viability. The test is described as follows: Anticancer human tumor LG0567-F671-PDC patient-derived lung adenocarcinoma cell line growth inhibition [KRAS2]. The settings on record: spheroids with HUVEC and MSC; for IC50: curve of first compound; for viability, T/C: stronger effect = lower value. An outline of the steps:
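Combination screen of spheroid viability in tumor-cell co-cultures with endothelial (HUVEC) and mesenchymal stem cell stroma. Each agent was tested in half-log dilutions, topping at clinical Cmax or at 10 microM without a known Cmax.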

The mark [1] stands for this setting: second compound 0.0316 µM, first compound 0.0316 µM.
[2] abbreviates: second compound 0.0316 µM, first compound 0.1 µM.
The mark [3] stands for this setting: second compound 0.0316 µM, first compound 0.316 µM.
Setting [4] is: second compound 0.0316 µM, first compound 1 µM.
Where [5] appears, read: second compound 0.0316 µM, first compound 3.16 µM.
[6] abbreviates: second compound 0.0316 µM, first compound 10 µM.
The mark [7] stands for this setting: second compound 0.1 µM, first compound 0.0316 µM.
Where [8] appears, read: second compound 0.1 µM, first compound 0.1 µM.
Setting [9] is: second compound 0.1 µM, first compound 0.316 µM.
[10] abbreviates: second compound 0.1 µM, first compound 1 µM.
The mark [11] stands for this setting: second compound 0.1 µM, first compound 3.16 µM.
Setting [12] is: second compound 0.1 µM, first compound 10 µM.
Setting [13] is: second compound 0.316 µM, first compound 0.0316 µM.
[14] abbreviates: second compound 0.316 µM, first compound 0.1 µM.
[15] abbreviates: second compound 0.316 µM, first compound 0.316 µM.
Setting [16] is: second compound 0.316 µM, first compound 1 µM.
[17] abbreviates: second compound 0.316 µM, first compound 3.16 µM.
[18] abbreviates: second compound 0.316 µM, first compound 10 µM.
Where [19] appears, read: second compound 1 µM, first compound 0.0316 µM.
Where [20] appears, read: second compound 1 µM, first compound 0.1 µM.
Setting [21] is: second compound 1 µM, first compound 0.316 µM.
The mark [22] stands for this setting: second compound 1 µM, first compound 1 µM.
Where [23] appears, read: second compound 1 µM, first compound 3.16 µM.
Setting [24] is: second compound 1 µM, first compound 10 µM.
[25] abbreviates: second compound 3.16 µM, first compound 0.0316 µM.
Setting [26] is: second compound 3.16 µM, first compound 0.1 µM.
Setting [27] is: second compound 3.16 µM, first compound 0.316 µM.
Setting [28] is: second compound 3.16 µM, first compound 1 µM.
Setting [29] is: second compound 3.16 µM, first compound 3.16 µM.
[30] abbreviates: second compound 3.16 µM, first compound 10 µM.

Where only a bound is given, the exact number is not on record here.
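Note: drug exposure lasted seven days after spheroids formed for three days.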
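Throughout, for viability, T/C: 100% = DMSO vehicle control viability.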

The term IC50 denotes the concentration at which inhibition is half-maximal. For orientation: viability, T/C means the result in the treated group divided by that in the control group, in per cent. Take `COc1cc(Nc2ncc3c(n2)-c2ccc(Cl)cc2C(c2c(F)cccc2OC)=NC3)ccc1C(=O)O` + C=CC(=O)N1CCN(c2nc(OCC3CCCN3C)nc3c2CCN(c2cccc4cccc(C)c24)C3)CC1CC#N: the IC50 was below 31.6 nM (second compound 0.0316 µM); below 31.6 nM (second compound 0.1 µM); below 31.6 nM (second compound 0.316 µM); below 31.6 nM (second compound 1 µM); below 31.6 nM (second compound 3.16 µM). Besides, the viability, T/C runs as follows: under setting [1], 32.8%; under setting [2], 20.1%; under setting [3], 20.5%; under setting [4], 20.2%; under setting [5], 18.7%; under setting [6], 16.3%. The viability, T/C was 25.7% under setting [7]; 22.9% under setting [8]; 17.6% under setting [9]; 19.2% under setting [10]; 21.8% under setting [11]; 15% under setting [12]. Also, the viability, T/C runs as follows: under setting [13], 29.2%; under setting [14], 22.6%; under setting [15], 20.3%; under setting [16], 19.7%; under setting [17], 23.3%; under setting [18], 16.9%. Besides, the viability, T/C is 27.8% under setting [19]; 26.4% under setting [20]; 24.6% under setting [21]; 25.4% under setting [22]; 26.7% under setting [23]; 22.9% under setting [24]. Besides, the viability, T/C was 28.7% under setting [25]; 30.4% under setting [26]; 30.3% under setting [27]; 23.7% under setting [28]; 17% under setting [29]; 1.09% under setting [30].
`O=C(c1cc(Cc2n[nH]c(=O)c3ccccc23)ccc1F)N1CCN(C(=O)C2CC2)CC1` + C=CC(=O)N1CCN(c2nc(OCC3CCCN3C)nc3c2CCN(c2cccc4cccc(C)c24)C3)CC1CC#N: the IC50 was below 31.6 nM (second compound 0.0316 µM); below 31.6 nM (second compound 0.1 µM); below 31.6 nM (second compound 0.316 µM); below 31.6 nM (second compound 1 µM); below 31.6 nM (second compound 3.16 µM). In addition, the viability, T/C runs as follows: under setting [1], 33.1%; under setting [2], 28.8%; under setting [3], 89.6%; under setting [4], 26%; under setting [5], 30%; under setting [6], 30.3%. The viability, T/C is, setting by setting: under setting [7], 21.3%; under setting [8], 22.5%; under setting [9], 23.6%; under setting [10], 24.1%; under setting [11], 27.9%; under setting [12], 34.4%. Besides, the viability, T/C by setting is: under setting [13], 25.6%; under setting [14], 26%; under setting [15], 24.1%; under setting [16], 24.4%; under setting [17], 23.6%; under setting [18], 29.6%. Besides, the viability, T/C under setting [19] was 27.9%; the viability, T/C under setting [20] was 28.3%; the viability, T/C under setting [21] is 26%; the viability, T/C under setting [22] was 25.6%; the viability, T/C under setting [23] is 25.8%; the viability, T/C under setting [24] is 30.9%. Further, the viability, T/C is 30.1% under setting [25]; 29.2% under setting [26]; 33.1% under setting [27]; 30.4% under setting [28]; 35.4% under setting [29]; 24.3% under setting [30].
Consider `COc1cc(OC)cc(N(CCNC(C)C)c2ccc3ncc(-c4cnn(C)c4)nc3c2)c1`, for which, where the note is “compound 0.316 µM”, the viability, T/C is 92.2% [middle of 5 runs].
